Consider one compound from ChEMBL document CHEMBL2151039, “Discovery and development of α7 nicotinic acetylcholine receptor modulators” (J Med Chem, 2011).

Each structure is given as a SMILES string. Where a SMILES comes first, the peptide text is derived from it. Bridges are numbered along the chain shown (N, C = ends).

The species entered for one experiment is Homo sapiens. The experiment is described as follows: Selectivity ratio of IC50 for nAChR to IC50 for human alpha7 nAChR.
Experiment [1] has as its target Neuronal acetylcholine receptor subunit alpha-7 (Mus musculus, UniProt P49582). The experiment is described as follows: Displacement of [125I]alpha-Bungarotoxin from alpha7 nAchR in mouse hippocampal membranes. In kind it is cell membranes, Hippocampus.
Experiment [2] concerns the target Neuronal acetylcholine receptor subunit alpha-7 (Homo sapiens, UniProt P36544). As to the kind of experiment: Antagonist activity at human alpha7 nAChR expressed in Xenopus oocyte. Type of experiment: functional.

Chain of Neuronal acetylcholine receptor subunit alpha-7 (Mus musculus, UniProt P49582) (P49582 whole entry): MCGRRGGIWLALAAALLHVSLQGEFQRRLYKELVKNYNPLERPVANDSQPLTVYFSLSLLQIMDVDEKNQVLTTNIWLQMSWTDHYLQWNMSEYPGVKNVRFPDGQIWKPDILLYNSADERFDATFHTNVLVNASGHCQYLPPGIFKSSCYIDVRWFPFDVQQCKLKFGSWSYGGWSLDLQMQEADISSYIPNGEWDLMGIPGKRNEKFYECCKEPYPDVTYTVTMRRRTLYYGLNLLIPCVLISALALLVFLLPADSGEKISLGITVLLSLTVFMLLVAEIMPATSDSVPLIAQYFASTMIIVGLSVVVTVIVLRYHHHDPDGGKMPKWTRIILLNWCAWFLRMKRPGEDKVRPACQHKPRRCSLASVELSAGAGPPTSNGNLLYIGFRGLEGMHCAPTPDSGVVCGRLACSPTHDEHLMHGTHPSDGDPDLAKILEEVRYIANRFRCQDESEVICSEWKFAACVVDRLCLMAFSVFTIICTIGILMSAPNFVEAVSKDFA
Chain of Neuronal acetylcholine receptor subunit alpha-7 (Homo sapiens, UniProt P36544) (P36544 whole entry): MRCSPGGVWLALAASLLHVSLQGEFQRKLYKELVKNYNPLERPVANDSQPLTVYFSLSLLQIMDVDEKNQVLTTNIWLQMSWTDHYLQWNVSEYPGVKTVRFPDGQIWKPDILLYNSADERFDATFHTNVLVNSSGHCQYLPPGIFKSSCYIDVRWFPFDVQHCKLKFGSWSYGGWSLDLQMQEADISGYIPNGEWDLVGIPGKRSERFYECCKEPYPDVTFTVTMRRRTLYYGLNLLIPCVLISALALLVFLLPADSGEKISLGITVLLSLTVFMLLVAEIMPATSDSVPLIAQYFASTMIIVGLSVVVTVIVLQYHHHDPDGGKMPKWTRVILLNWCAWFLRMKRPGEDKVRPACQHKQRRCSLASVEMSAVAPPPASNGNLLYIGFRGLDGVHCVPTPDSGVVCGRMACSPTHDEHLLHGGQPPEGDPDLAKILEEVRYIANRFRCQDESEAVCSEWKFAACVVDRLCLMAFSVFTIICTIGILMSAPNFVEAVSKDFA

Turning to `CC(C)C[C@@H]1NC(=O)[C@H](CCCNC(=N)N)NC(=O)[C@@H]2CSSC[C@H](NC(=O)[C@H](CCC(=O)O)NC(=O)[C@@H](N)CC(=O)O)C(=O)N[C@@H](CSSC[C@@H](C(=O)N[C@@H](CCCNC(=N)N)C(=O)N[C@@H](CCCNC(=N)N)C(=O)N[C@@H](CCCNC(=N)N)C(=O)O)NC(=O)[C@H](CC(=O)O)NC(=O)[C@H](Cc3cnc[nH]3)NC(=O)[C@@H]3CCCN3C(=O)[C@H](CC(N)=O)NC(=O)[C@H](CC(N)=O)NC1=O)C(=O)N[C@@H](CO)C(=O)N[C@@H](CC(N)=O)C(=O)N1CCC[C@H]1C(=O)N[C@@H](C)C(=O)N2` (H-DECCSNPACRLNNPHDCRRR-OH; disulfide 3-9, 4-17), the Ratio IC50 in the experiment listed under Homo sapiens is over 800. The Ki – broadly, a measure of affinity in units of concentration, obtained from inhibition or displacement – in experiment [1] came to 7.04 nM. The IC50 (in general, the point on the concentration scale where inhibition reaches its midpoint) in experiment [2] stood at 1.09 nM.
